Experimental findings from ChEMBL document CHEMBL1138237, “Synthesis and anti-inflammatory/antioxidant activities of some new ring substituted 3-phenyl-1-(1,4-di-N-oxide quinoxalin-2-yl)-2-propen-1-one derivatives and of their 4,5-dihydro-(1H)-pyrazole analogues” (Bioorg Med Chem Lett, 2007) are described below.

Assay [1] concerns Radical scavenging activity. In words: Antioxidant activity assessed as DPPH radical scavenging activity at 0.1 mM after 20 mins. Format: functional.
Assay [2] has as its target T1, Seed linoleate 13S-lipoxygenase-1 (Glycine max) (UniProt P08170).
T1 sequence (whole entry): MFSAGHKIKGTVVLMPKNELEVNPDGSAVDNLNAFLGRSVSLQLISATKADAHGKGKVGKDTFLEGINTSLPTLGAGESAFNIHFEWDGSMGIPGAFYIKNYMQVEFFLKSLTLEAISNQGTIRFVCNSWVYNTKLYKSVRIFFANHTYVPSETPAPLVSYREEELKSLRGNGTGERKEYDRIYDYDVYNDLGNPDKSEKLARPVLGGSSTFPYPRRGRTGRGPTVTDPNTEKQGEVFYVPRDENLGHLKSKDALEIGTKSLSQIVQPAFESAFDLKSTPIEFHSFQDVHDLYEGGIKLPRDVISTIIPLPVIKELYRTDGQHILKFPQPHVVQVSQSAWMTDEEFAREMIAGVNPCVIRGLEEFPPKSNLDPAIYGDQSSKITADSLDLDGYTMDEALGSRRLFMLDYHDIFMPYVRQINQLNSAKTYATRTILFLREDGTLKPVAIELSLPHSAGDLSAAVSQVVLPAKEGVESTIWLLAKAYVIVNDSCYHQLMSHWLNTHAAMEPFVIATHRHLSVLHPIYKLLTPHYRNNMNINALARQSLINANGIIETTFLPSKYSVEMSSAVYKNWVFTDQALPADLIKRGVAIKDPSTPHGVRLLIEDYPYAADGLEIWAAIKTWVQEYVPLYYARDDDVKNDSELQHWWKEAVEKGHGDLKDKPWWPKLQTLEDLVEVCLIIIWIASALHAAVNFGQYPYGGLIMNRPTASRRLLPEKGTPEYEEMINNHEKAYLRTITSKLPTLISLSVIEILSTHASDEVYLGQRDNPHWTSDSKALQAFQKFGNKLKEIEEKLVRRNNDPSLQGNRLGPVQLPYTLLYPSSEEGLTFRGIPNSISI
In words: Inhibition of soybean lipoxygenase at 100 uM.

Assay [3] concerns Radical scavenging activity. Kind of assay: Antioxidant activity assessed as DPPH radical scavenging activity at 0.05 mM after 20 mins. Format: functional. For orientation: Loss of DPPH colour is used to gauge radical scavenging.
In assay [4] the test system is Radical scavenging activity. Kind of assay: Antioxidant activity assessed as DPPH radical scavenging activity at 0.05 mM after 60 mins. Format: functional.
For another assay, the system named is Rattus norvegicus. Kind of assay: Antiinflammatory activity against carrageenan-induced paw edema rat model at 0.01 mmol/ml/kg. It counts as functional. A general note: Carrageenan injected into the paw causes an acute inflammation.
The nature of assay [5]: Antioxidant activity assessed as hydroxyl radical scavenging activity at 0.1 mM. Format: functional.
Assay [6] relates to Radical scavenging activity. Kind of assay: Antioxidant activity assessed as DPPH radical scavenging activity at 0.1 mM after 60 mins. It counts as functional.
Assay [7] is described as follows: Antioxidant activity assessed as superoxide radical scavenging activity at 0.1 mM by nitroblue tetrazolium method. Format: functional.
For assay [8], the target named is T2, Seed linoleate 13S-lipoxygenase-1 (Glycine max, UniProt P08170).
T2 sequence (P08170 whole entry): T1 sequence (whole entry)
Kind of assay: Inhibition of soybean lipoxygenase.

For `COc1ccc2c(c1)[n+]([O-])c(C(=O)/C=C/c1ccc(O)c(OC)c1)c(C)[n+]2[O-]`, the Activity came out at 51% in [1]; 45% in assay [3]; 59% in [4]; 97.3% in assay [5]; 70.4% in [6]. This molecule displayed an inhibition in [2] of 55.7%. Also, in the assay on Rattus norvegicus, the Inhibition stood at 21.3%.
Regarding `COc1cc(/C=C/C(=O)c2c(C)[n+]([O-])c3ccccc3[n+]2[O-])ccc1O`, the Activity in assay [1] was determined as 39.4%; in assay [7] it was 12.5%; in assay [5] it was 100%; in assay [6], 56%. The same molecule had an IC50 in assay [8] of less than 1 µM. Further, in the assay on Rattus norvegicus, the Inhibition was 56.1%.
With `COc1cc(C2CC(c3c(C)[n+]([O-])c4ccccc4[n+]3[O-])=NN2)cc(OC)c1OC` (stereo not given), the Activity in [1] is 31%; in assay [3] it was 42%; in [4], 46%; in [5], 93.4%; in assay [6] it was 38%. Moreover, the inhibition in [2] worked out at 67.3%. The Inhibition in the assay on Rattus norvegicus is on record as 24.3%.
Consider `O=C(O)/C=C/c1ccc(O)c(O)c1`, for which the Activity in assay [7] turned out to be 45%.
Regarding `COc1cc(C2CC(c3c(C)[n+]([O-])c4ccc(F)cc4[n+]3[O-])=NN2)cc(OC)c1OC` (stereo not given), the Activity in assay [1] stood at 51.6%; in assay [3], 58%; in assay [4], 67%; in [5], 99.3%; in assay [6] it was 68%. Further, the IC50 in assay [8] amounted to 70 µM. In the assay on Rattus norvegicus, this molecule registered an Inhibition of 23.4%.
As for `Cc1c(C(=O)/C=C/c2ccc3c(c2)OCO3)[n+]([O-])c2ccccc2[n+]1[O-]`, the Activity in assay [1] came to 1%; in assay [5], 96%; in assay [6] it was 3%. For the same molecule, the IC50 in assay [8] worked out at 31 µM. In the assay on Rattus norvegicus, this molecule gave an Inhibition of 4.5%.
With `CC(Cc1ccc(O)c(O)c1)C(C)Cc1ccc(O)c(O)c1` (stereo not given), the Activity in assay [1] amounted to 81%; in assay [3], 68%; in assay [4] it was 72%; in [6], 82.6%.
As to `COc1ccc2c(c1)c(CC(=O)O)c(C)n2C(=O)c1ccc(Cl)cc1` [INDOMETHACIN], the Inhibition in the assay on Rattus norvegicus is on record as 47%.
Take `COc1cc(/C=C/C(=O)c2c(C)[n+]([O-])c3ccccc3[n+]2[O-])cc(OC)c1OC`: the results for the Activity in [7] and in assay [5] were 100% and 99%, respectively. For the same molecule, in [8], 42 µM corresponded to half-maximal inhibition (IC50). In the assay with Rattus norvegicus, this molecule registered an Inhibition of 55.4%.
As for `Cc1c(C)c2c(c(C)c1O)CCC(C)(C(=O)O)O2` (stereo not given), the Activity in [5] came to 73.4%.
As to `COc1cc(/C=C/C(=O)c2c(C)[n+]([O-])c3ccc(F)cc3[n+]2[O-])ccc1O`, the Activity in assay [1] was determined as 45.3%; in [3] it was 36.4%; in assay [4] it was 38.4%; in [5], 99.7%; in [6], 52%. The IC50 in [8] came out at 85 µM. Also, the Inhibition in the assay on Rattus norvegicus came to 36.3%.

As usually defined, the inhibition is the relative decrease from the control value, in per cent. The low end stands for a response near the control, the high end for a response far below the control. Broadly, the Inhibition is the drop in the measured response relative to a control, in per cent. The low end stands for a weak effect, the high end for a strong effect. The IC50 is the point on the concentration scale where inhibition reaches its midpoint.
